In publication PMC11240139, “Exploring the antitumor potential of novel quinoline derivatives via tubulin polymerization inhibition in breast cancer; design, synthesis and molecular docking” (RSC Advances, 2024):

Columns and labels:
Type in all cases: cell-based
SF-539 (CNS cancer) = experiment: NCI-60 SRB cytotoxicity screen; conditions: Homo sapiens; SF-539, single dose 10 μM; read-out: growth inhibition (GI%)
[1] = tested on: 60 cancer cell lines (NCI); experiment: NCI-60 single-dose screen, overall verdict over the panel; conditions: single dose 10 μM, whole panel
Outline: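 Compounds were tested at a single 10^−5 M dose across the NCI 60 cell line panel, with cells preincubated 24 h before treatment. Viability was measured by TCA fixation and sulforhodamine B staining, absorbance 540 nm. % cytotoxicity = [1 − (sample/negative control absorbance)] × 100.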

SF-268 (CNS cancer) = experiment: NCI-60 SRB cytotoxicity screen; conditions: Homo sapiens; SF-268, single dose 10 μM; read-out: growth inhibition (GI%)
HS 578T (breast cancer) = experiment: NCI-60 SRB cytotoxicity screen; conditions: Homo sapiens, single dose 10 μM, read-out: growth inhibition (GI%)
UO-31 (renal cancer) = experiment: NCI-60 SRB cytotoxicity screen; conditions: Homo sapiens; UO-31, single dose 10 μM; read-out: growth inhibition (GI%)
SNB-19 (CNS cancer) = experiment: NCI-60 SRB cytotoxicity screen; conditions: Homo sapiens; SNB-19, single dose 10 μM; read-out: growth inhibition (GI%)
OVCAR-3 (ovarian cancer) = experiment: NCI-60 SRB cytotoxicity screen; conditions: Homo sapiens; OVCAR-3, single dose 10 μM; read-out: growth inhibition (GI%)
IGROV1 (ovarian cancer) = experiment: NCI-60 SRB cytotoxicity screen; conditions: Homo sapiens, IGROV-1; IGROV1, single dose 10 μM; read-out: growth inhibition (GI%)
A498 (renal cancer) = experiment: NCI-60 SRB cytotoxicity screen; conditions: Homo sapiens; A498, single dose 10 μM; read-out: growth inhibition (GI%)
[2] = tested on: NCI-H226 (non-small cell lung cancer); experiment: NCI-60 SRB cytotoxicity screen; conditions: Homo sapiens; NCI-H226, single dose 10 μM; read-out: growth inhibition (GI%)
CCRF-CEM (leukemia) = experiment: NCI-60 SRB cytotoxicity screen; conditions: Homo sapiens, single dose 10 μM, read-out: growth inhibition (GI%)
DU-145 (prostate cancer) = experiment: NCI-60 SRB cytotoxicity screen; conditions: Homo sapiens; DU-145, single dose 10 μM; read-out: growth inhibition (GI%)
MOLT-4 (leukemia) = experiment: NCI-60 SRB cytotoxicity screen; conditions: Homo sapiens; MOLT-4, single dose 10 μM; read-out: growth inhibition (GI%)
T-47D (breast cancer) = experiment: NCI-60 SRB cytotoxicity screen; conditions: Homo sapiens, T47D, single dose 10 μM, read-out: growth inhibition (GI%)
OVCAR-5 (ovarian cancer) = experiment: NCI-60 SRB cytotoxicity screen; conditions: Homo sapiens; OVCAR-5, single dose 10 μM; read-out: growth inhibition (GI%)
[3] = tested on: MDA-MB-231/ATCC (breast cancer); experiment: NCI-60 SRB cytotoxicity screen; conditions: Homo sapiens, MDA-MB-231, read-out: growth inhibition (GI%);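 also: growth inhibition in percent at a single 10 µM dose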
SN12C (renal cancer) = experiment: NCI-60 SRB cytotoxicity screen; conditions: Homo sapiens, single dose 10 μM, read-out: growth inhibition (GI%)
[4] = tested on: NCI-H23 (non-small cell lung cancer); experiment: NCI-60 SRB cytotoxicity screen; conditions: Homo sapiens; NCI-H23, single dose 10 μM; read-out: growth inhibition (GI%)
K-562 (leukemia) = experiment: NCI-60 SRB cytotoxicity screen; conditions: Homo sapiens; K-652 [sic], single dose 10 μM; read-out: growth inhibition (GI%)
SNB-75 (CNS cancer) = experiment: NCI-60 SRB cytotoxicity screen; conditions: Homo sapiens, SNB-75, SNB-75, single dose 10 μM; read-out: growth inhibition (GI%)
[5] = tested on: NCI-H322M (non-small cell lung cancer); experiment: NCI-60 SRB cytotoxicity screen; conditions: Homo sapiens, single dose 10 μM, read-out: growth inhibition (GI%)
HCT-116 (colon cancer) = experiment: NCI-60 SRB cytotoxicity screen; conditions: Homo sapiens; HCT-116, single dose 10 μM; read-out: growth inhibition (GI%)
SK-MEL-28 (melanoma) = experiment: NCI-60 SRB cytotoxicity screen; conditions: Homo sapiens; SK-MEL-28, single dose 10 μM; read-out: growth inhibition (GI%)
[6] = tested on: MDA-MB-468 (breast cancer); experiment: NCI-60 SRB cytotoxicity screen; conditions: Homo sapiens; MDA-MB-468, single dose 10 μM; read-out: growth inhibition (GI%)
Outline: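 NCI-60 single-dose (10^−5 M) screen in MDA-MB-468 with SRB protein-stain read-out after 48 h exposure; cells TCA-fixed and absorbance read at 540 nm. Reported as GI%, with compounds meeting NCI activity criteria then run at five doses (0.01–100 μM).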

LOX IMVI (melanoma) = experiment: NCI-60 SRB cytotoxicity screen; conditions: Homo sapiens, single dose 10 μM, read-out: growth inhibition (GI%)
COLO 205 (colon cancer) = experiment: NCI-60 SRB cytotoxicity screen; conditions: Homo sapiens; COLO 205, single dose 10 μM; read-out: growth inhibition (GI%)
U251 (CNS cancer) = experiment: NCI-60 SRB cytotoxicity screen; conditions: Homo sapiens, U-251; U251, single dose 10 μM; read-out: growth inhibition (GI%)
OVCAR-8 (ovarian cancer) = experiment: NCI-60 SRB cytotoxicity screen; conditions: Homo sapiens; OVCAR-8, single dose 10 μM; read-out: growth inhibition (GI%)
[7] = tested on: NCI/ADR-RES (ovarian cancer); experiment: NCI-60 SRB cytotoxicity screen; conditions: Homo sapiens, single dose 10 μM, read-out: growth inhibition (GI%)
HT29 (colon cancer) = experiment: NCI-60 SRB cytotoxicity screen; conditions: Homo sapiens, HT-29; HT29, single dose 10 μM; read-out: growth inhibition (GI%)
M14 (melanoma) = experiment: NCI-60 SRB cytotoxicity screen; conditions: Homo sapiens; M14, single dose 10 μM; read-out: growth inhibition (GI%)

| SMILES | inhibition at 10 µM (SF-539 (CNS cancer)) | cytotoxic activity over the cell lines (in words) [1] | inhibition at 10 µM (SF-268 (CNS cancer)) | inhibition at 10 µM (HS 578T (breast cancer)) | inhibition at 10 µM (UO-31 (renal cancer)) | inhibition at 10 µM (SNB-19 (CNS cancer)) | inhibition at 10 µM (OVCAR-3 (ovarian cancer)) | inhibition at 10 µM (IGROV1 (ovarian cancer)) | inhibition at 10 µM (A498 (renal cancer)) | inhibition at 10 µM [2] | inhibition at 10 µM (CCRF-CEM (leukemia)) | inhibition at 10 µM (DU-145 (prostate cancer)) | inhibition at 10 µM (MOLT-4 (leukemia)) | inhibition at 10 µM (T-47D (breast cancer)) | inhibition at 10 µM (OVCAR-5 (ovarian cancer)) | inhibition at 10 µM [3] | inhibition at 10 µM (SN12C (renal cancer)) | inhibition at 10 µM [4] | inhibition at 10 µM (K-562 (leukemia)) | inhibition at 10 µM (SNB-75 (CNS cancer)) | also measured |
| --- | --- | --- | --- | --- | --- | --- | --- | --- | --- | --- | --- | --- | --- | --- | --- | --- | --- | --- | --- | --- | --- |
| CCc1cccc2cc(-c3cc(-c4ccc(Br)cc4)[nH]c(=O)c3C#N)c(Cl)nc12 [Compound 4e, 6-(4-Bromophenyl)-4-(2-chloro-8-ethylquinolin-3-yl)-2-oxo-1,2-dihydropyridine-3-carbonitrile] | < 10% | mild cytotoxic activity | < 10% | < 10% | 17.8% | < 10% | < 10% | < 10% | < 10% | < 10% | < 10% | < 10% | < 10% | < 10% | < 10% | < 10% | < 10% | < 10% | 33.5% | < 10% | inhibition at 10 µM [5]: < 10%; inhibition at 10 µM (HCT-116 (colon cancer)): < 10%; inhibition at 10 µM (SK-MEL-28 (melanoma)): < 10%; inhibition at 10 µM [6]: < 10%; inhibition at 10 µM (LOX IMVI (melanoma)): < 10%; inhibition at 10 µM (COLO 205 (colon cancer)): < 10%; inhibition at 10 µM (U251 (CNS cancer)): < 10%; inhibition at 10 µM (OVCAR-8 (ovarian cancer)): < 10%; inhibition at 10 µM [7]: < 10%; inhibition at 10 µM (HT29 (colon cancer)): < 10%; inhibition at 10 µM (M14 (melanoma)): < 10% |
| CCc1cccc2cc(C3C=C(c4ccc(Br)cc4)NC(=S)N3)c(Cl)nc12 (stereo not drawn) [Compound 6e, 6-(4-Bromophenyl)-4-(2-chloro-8-ethylquinolin-3-yl)-3,4-dihydropyrimidine-2(1H)-thione] | < 10% | limited cytotoxic activity | < 10% | < 10% | 32.7% | < 10% | < 10% | < 10% | < 10% | < 10% | < 10% | < 10% | 26.2% | < 10% | < 10% | < 10% | < 10% | < 10% | < 10% | < 10% | inhibition at 10 µM [5]: < 10%; inhibition at 10 µM (HCT-116 (colon cancer)): 10.5%; inhibition at 10 µM (SK-MEL-28 (melanoma)): < 10%; inhibition at 10 µM [6]: < 10%; inhibition at 10 µM (LOX IMVI (melanoma)): < 10%; inhibition at 10 µM (COLO 205 (colon cancer)): < 10%; inhibition at 10 µM (U251 (CNS cancer)): < 10%; inhibition at 10 µM (OVCAR-8 (ovarian cancer)): < 10%; inhibition at 10 µM [7]: < 10%; inhibition at 10 µM (HT29 (colon cancer)): 11.9%; inhibition at 10 µM (M14 (melanoma)): < 10% |
| CCc1cccc2cc(-c3cc(-c4ccc(OC)c(OC)c4)[nH]c(=O)c3C#N)c(Cl)nc12 [Compound 4b, 4-(2-Chloro-8-ethylquinolin-3-yl)-6-(3,4-dimethoxyphenyl)-2-oxo-1,2-dihydropyridine-3-carbonitrile] | < 10% | mild cytotoxic activity | 16.1% | 10.3% | < 10% | < 10% | < 10% | < 10% | < 10% | < 10% | < 10% | < 10% | < 10% | 16.6% | < 10% | < 10% | < 10% | < 10% | 20% | 29.6% | inhibition at 10 µM [5]: < 10%; inhibition at 10 µM (HCT-116 (colon cancer)): < 10%; inhibition at 10 µM (SK-MEL-28 (melanoma)): < 10%; inhibition at 10 µM [6]: < 10%; inhibition at 10 µM (LOX IMVI (melanoma)): < 10%; inhibition at 10 µM (COLO 205 (colon cancer)): < 10%; inhibition at 10 µM (U251 (CNS cancer)): < 10%; inhibition at 10 µM (OVCAR-8 (ovarian cancer)): < 10%; inhibition at 10 µM [7]: < 10%; inhibition at 10 µM (HT29 (colon cancer)): < 10%; inhibition at 10 µM (M14 (melanoma)): < 10% |
